The NIST ThermoML archive (doi:10.1021/je050406x)
Numbers after ± are expanded uncertainties.

How the values were obtained:
[1] = Crystal; DTA
[2] = Molar enthalpy of transition or fusion; details: Crystal; DSC

O=C1COCCO1 [1,4-dioxan-2-one]
Normal melting temperature [1]: 28.26 ± 0.5 °C
Molar enthalpy of transition or fusion [2]: 3.75 ± 0.0908 kcal/mol
